From paper PMC10979456, “Trinucleotide mRNA Cap Analogue N6-Benzylated at the Site of Posttranscriptional ^m6Am Mark Facilitates mRNA Purification and Confers Superior Translational Properties In Vitro and In Vivo” (Journal of the American Chemical Society, 2024) come the findings set out here.

Holding throughout (assay): time-synchronized fluorescence quenching titration
Format in all cases: binding

For one test, the target named is T1, heIF4E1a (Homo sapiens, UniProt P06730).
T1 construct: gene EIF4E; not described in main text (experimental details in supplement)
T1 sequence (P06730 2-217): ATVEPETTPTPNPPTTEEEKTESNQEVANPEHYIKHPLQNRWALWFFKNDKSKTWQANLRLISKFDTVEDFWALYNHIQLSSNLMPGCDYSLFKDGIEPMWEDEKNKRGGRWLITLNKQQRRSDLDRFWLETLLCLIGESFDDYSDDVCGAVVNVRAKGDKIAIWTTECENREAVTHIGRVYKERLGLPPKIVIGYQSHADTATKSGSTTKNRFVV

The target in the next test is T2, h4EHP (eIF4E2) (Homo sapiens, UniProt O60573).
T2 construct: not described in main text (experimental details in supplement)
T2 sequence (O60573 1-245): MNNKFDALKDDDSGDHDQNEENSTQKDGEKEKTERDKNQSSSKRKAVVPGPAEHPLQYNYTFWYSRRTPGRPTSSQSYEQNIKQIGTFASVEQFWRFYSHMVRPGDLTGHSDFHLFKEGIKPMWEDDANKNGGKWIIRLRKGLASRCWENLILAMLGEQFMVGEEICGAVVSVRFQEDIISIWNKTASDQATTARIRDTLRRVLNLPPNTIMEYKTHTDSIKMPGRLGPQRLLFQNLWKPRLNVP
From the text: time-synchronized fluorescence quenching titration on h4EHP (eIF4E2)

The target in another test is T3, heIF4E3 (Homo sapiens, UniProt Q8N5X7).
T3 construct: gene EIF4E3; not described in main text (experimental details in supplement)
T3 sequence (Q8N5X7 whole entry): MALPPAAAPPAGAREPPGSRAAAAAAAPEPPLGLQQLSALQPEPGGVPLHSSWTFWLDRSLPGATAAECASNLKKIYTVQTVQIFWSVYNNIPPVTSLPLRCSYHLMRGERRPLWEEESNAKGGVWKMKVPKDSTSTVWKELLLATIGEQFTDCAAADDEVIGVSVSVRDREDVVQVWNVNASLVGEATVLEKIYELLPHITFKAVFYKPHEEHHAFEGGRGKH
From the text:
time-synchronized fluorescence quenching titration on heIF4E3

In the case of `CO[C@@H]1[C@H](OP(=O)(O)OC[C@H]2O[C@@H](n3cnc4c(=O)[nH]c(N)nc43)[C@H](O)[C@@H]2O)[C@@H](COP(=O)(O)OP(=O)(O)OP(=O)(O)OC[C@H]2O[C@@H](n3c[n+](C)c4c(=O)[nH]c(N)nc43)[C@H](O)[C@@H]2O)O[C@H]1n1cnc2c(NCc3ccccc3)ncnc21` [compound 1, m^7Gppp^Bn6AmpG], the Kd (usually the equilibrium constant for the complex coming apart) on heIF4E1a was determined as 23.9 ± 0.5 nM; at h4EHP (eIF4E2) it was 687 ± 10 nM; on heIF4E3, 95.7 ± 1.7 nM.
As to `C[n+]1cn([C@@H]2O[C@H](COP(=O)(O)OP(=O)(O)OP(=O)(O)O)[C@@H](O)[C@H]2O)c2nc(N)[nH]c(=O)c21` [m^7GTP], the dissociation constant Kd at h4EHP (eIF4E2) worked out at 611 ± 19 nM; on heIF4E3 it was 129 ± 14 nM.
In the case of `CO[C@@H]1[C@H](OP(=O)(O)OC[C@H]2O[C@@H](n3cnc4c(=O)[nH]c(N)nc43)[C@H](O)[C@@H]2O)[C@@H](COP(=O)(O)OP(=O)(O)OP(=O)(O)OC[C@H]2O[C@@H](n3c[n+](C)c4c(=O)[nH]c(N)nc43)[C@H](O)[C@@H]2O)O[C@H]1n1cnc2c(N)ncnc21` [m^7GpppAmpG], the Kd at heIF4E1a was determined as 42.1 ± 0.7 nM; on h4EHP (eIF4E2), 1020 ± 19 nM; on heIF4E3, 153 ± 3 nM.
Consider `CNc1ncnc2c1ncn2[C@@H]1O[C@H](COP(=O)(O)OP(=O)(O)OP(=O)(O)OC[C@H]2O[C@@H](n3c[n+](C)c4c(=O)[nH]c(N)nc43)[C@H](O)[C@@H]2O)[C@@H](OP(=O)(O)OC[C@H]2O[C@@H](n3cnc4c(=O)[nH]c(N)nc43)[C@H](O)[C@@H]2O)[C@H]1OC` [m^7Gppp^m6AmpG], for which the values for the Kd at heIF4E1a, on h4EHP (eIF4E2) and on heIF4E3 were 46.4 ± 0.6 nM, 1340 ± 32 nM and 140 ± 4 nM, respectively.
